Assay results reported in patent US20250333381A1, “SOLID STATE FORMS” (AMGEN INC., priority 2024, published 2025).
Values after ≈ are worked out from the molar mass of the structure shown. “Also recorded” adds a separate entry of the source. Structures can show the parent of a compound that is named as a salt. Blank lines part the entries; values can stand above or below the compound they belong to.

Experiments:
C3G patients = settings: compared to placebo, 26 weeks of blinded treatment; cited from earlier work
HS patients = settings: vs. placebo, pre-specified Hurley Stage III (severe HS) patients, 12 weeks; cited from earlier work
[1] = Solubility in FaSSIF (shake 2 hr, HPLC); format: physicochemical; settings: for Solubility: 2 h
Protocol: Solubility: Samples were prepared by adding ˜10 mg of the solid to a small centrifuge tube followed by the addition of 1.75 mL freshly prepared FaSSIF solution. The pH of each suspension was measured prior to shaking the samples in an Eppendorf ThermoMixer F1.5 at 37° C. and 1500 rpm for 2 hr. The samples were centrifuged, and the pH of each suspension was measured again at the T=2 hr timepoint. The samples were filtered through Millex 0.20 μm PTFE syringe filters and the filtrates were diluted by a factor of 2 with acetonitrile. Solubility samples were prepared in duplicate. […] The samples were analyzed by HPLC using the method parameters described in the table below. [table] […] The samples were analyzed by HPLC using the method parameters described in the table below. [table]

[2] = Dynamic Vapor Sorption (DVS), hygroscopicity; format: physicochemical; settings: 25° C., 0% RH-90% RH-0% RH
Protocol: Dynamic Vapor Sorption (DVS): Water sorption data were collected using a DVS Adventure dynamic vapor sorption analyzer (Surface Measurement Systems). The relative humidity at 25° C. was calibrated against the deliquescence point of LiCl, Mg(NO3)2 and KCl. Approximately 5-15 mg were loaded onto a tared metal pan. Data were collected from 0 to 90 to 0% RH in 5% increments at 25° C. Progression to the next stage occurred when the change in mass with respect to time was less than 0.002 per minute or after 180 minutes, whichever occurred first. The minimum stage time was 10 minutes. [table]

[3] = Dissolution profiles, PION MicroDiss (FIG. 16); format: physicochemical; settings: FaSSIF + 0.2% Tween 80, ~37° C.; for Rate and extent of dissolution: compared to amorphous free base
Protocol: Dissolution profiles were generated comparing the free base anhydrous crystalline form of Compound A, the amorphous free base form of Compound A, the crystalline HCl salt form of Compound A, and the crystalline HBr salt form of Compound A. The dissolution profiles were obtained by employing a PION MicroDiss profiler equipped with Rainbow […] 8-channel in-situ fiber optic UV-vis spectrometer, heating blocks and magnetic stirrers. Dissolution media was equilibrated at 37° C. using Thermo Neslab RTE 7 recirculating chiller prior to addition of samples. Calibration standards were prepared by serial dilution from a methanol stock solution at 12 levels spanning concentrations 0-38 μg/mL. Samples were analyzed simultaneously in duplicate using the parameters described in the table below. [table]

[4] = Solid form screen: thermodynamic stability and form conversion; format: physicochemical; settings: for Thermodynamic stability among crystalline forms: screening process of the HCl and HBr salts; for Form conversion upon heating: heating (under vacuum)
Protocol: A solid form screen of HCl and HBr salts of Compound A was conducted. Crystalline salt forms of Compound A were identified, including a crystalline HCl salt form, a crystalline toluene solvate of a crystalline HCl salt form (also referred to herein an HCl salt toluene solvate form of Compound A), a crystalline HBr salt form, a crystalline toluene solvate of a crystalline HBr salt form (also referred to herein an HBr salt toluene solvate form of Compound A). Amorphous salt forms of Compound A were also identified, including an amorphous HCl salt form and an amorphous HBr salt form.
Further, the DV S data of both crystalline HCl and HBr salts form of Compound A indicate that these two materials are non-hygroscopic.

[5] = Dissolution profiles vs Napsylate, Tosylate, Besylate salt forms (FIGS. 35(a), 35(b)); format: physicochemical; settings: for Cmax of dissolution profile: Besylate salts
Description: (§1) FIGS. 35(a) and 35(b) show dissolution profiles of crystalline HCl Form 1 of Compound A of this disclosure compared to Napsylate, Tosylate, and Besylate salt forms of Compound A. The concentrations of the salts used are roughly double in FIG. 35(b) than in FIG. 35(a).
as §1, with “A. Besylate, Tosylate Napsylate salt forms of Compound A were prepared as described in WO 2021/092295.” for “A.”

Compound: Cc1ccc(NC(=O)[C@H]2CCCN(C(=O)c3c(C)cccc3F)[C@H]2c2ccc(NC3CCCC3)cc2)cc1C(F)(F)F [Compound A, (2R,3S)-2-(4-(cyclopentylamino)phenyl)-1-(2-fluoro-6-methylbenzoyl)-N-(4-methyl-3-(trifluoromethyl)phenyl)piperidine-3-carboxamide]
Renal function as measured by eGFR (C3G patients): statistically significant improvement in renal function | HiSCR (Hidradenitis Suppurativa Clinical Response) (HS patients): statistically significant dose-dependent improvement in HiSCR

Compound: Cc1ccc(NC(=O)[C@H]2CCCN(C(=O)c3c(C)cccc3F)[C@H]2c2ccc(NC3CCCC3)cc2)cc1C(F)(F)F [HBr salt toluene solvate form of Compound A] [(2R,3S)-2-(4-(cyclopentylamino)phenyl)-1-(2-fluoro-6-methylbenzoyl)-N-(4-methyl-3-(trifluoromethyl)phenyl)piperidine-3-carboxamide]
Form conversion upon heating [4]: convert to the respective HBr and HCl crystalline salt forms of Compound A upon heating; also recorded: converts to the HCl crystalline salt form of Compound A upon heating under vacuum from about 100 °C to about 125 °C from about 4 to about 24 hours

Compound: Cc1ccc(NC(=O)[C@H]2CCCN(C(=O)c3c(C)cccc3F)[C@H]2c2ccc(NC3CCCC3)cc2)cc1C(F)(F)F [HCl salt toluene solvate form of Compound A] [(2R,3S)-2-(4-(cyclopentylamino)phenyl)-1-(2-fluoro-6-methylbenzoyl)-N-(4-methyl-3-(trifluoromethyl)phenyl)piperidine-3-carboxamide]
Form conversion upon heating [4]: convert to the respective HBr and HCl crystalline salt forms of Compound A upon heating; also recorded: converts to the HCl crystalline salt form of Compound A upon heating under vacuum at about 60 °C for about 2 hours

Now from value to compound, other results behind:

Solubility relative to Besylate, Tosylate and Napsylate forms [1]: significantly more soluble | Hygroscopicity (DVS) [2]: non-hygroscopic
Compound: Cc1ccc(NC(=O)[C@H]2CCCN(C(=O)c3c(C)cccc3F)[C@H]2c2ccc(NC3CCCC3)cc2)cc1C(F)(F)F [Crystalline HBr salt form, (2R,3S)-2-(4-(cyclopentylamino)phenyl)-1-(2-fluoro-6-methylbenzoyl)-N-(4-methyl-3-(trifluoromethyl)phenyl)piperidine-3-carboxamide]
Rate and extent of dissolution ([3]; listed as crystalline HBr salt form of Compound A): performed similar in terms of rate and extent of dissolution to the amorphous form of avacopan | Thermodynamic stability among crystalline forms [4]: most thermodynamically stable crystalline forms identified in the screening process

Solubility relative to Besylate, Tosylate and Napsylate forms [1]: significantly more soluble | Hygroscopicity (DVS) [2]: non-hygroscopic | Rate and extent of dissolution ([3]; listed as crystalline HCl salt form of Compound A): follows very closely | Cmax of dissolution profile ([3]; compared to crystalline HBr salt and amorphous form): lesser Cmax | Cmax of dissolution profile ([5]; FaSSGF+0.2% tween 80 (pH 1.2)): highest Cmax of all salts | Cmax of dissolution profile ([5]; FaSSIF+0.2% tween 80 (pH 6.5)): highest Cmax of all salts
Compound: Cc1ccc(NC(=O)[C@H]2CCCN(C(=O)c3c(C)cccc3F)[C@H]2c2ccc(NC3CCCC3)cc2)cc1C(F)(F)F [Crystalline HCl salt form, (2R,3S)-2-(4-(cyclopentylamino)phenyl)-1-(2-fluoro-6-methylbenzoyl)-N-(4-methyl-3-(trifluoromethyl)phenyl)piperidine-3-carboxamide]
Tmax of dissolution profile ([5]; Besylate salt forms): higher than the Napsylate, Tosylate, and Besylate salt forms of Compound A | Thermodynamic stability among crystalline forms [4]: most thermodynamically stable crystalline forms identified in the screening process

Solubility [1]: 19.44 µg/mL (≈ 33.4 µM)
Compound: Cc1ccc(NC(=O)[C@H]2CCCN(C(=O)c3c(C)cccc3F)[C@H]2c2ccc(NC3CCCC3)cc2)cc1C(F)(F)F [Free Base Amorphous Form, (2R,3S)-2-(4-(cyclopentylamino)phenyl)-1-(2-fluoro-6-methylbenzoyl)-N-(4-methyl-3-(trifluoromethyl)phenyl)piperidine-3-carboxamide, reference compound]

Solubility [1]: 1.71 µg/mL (≈ 2.94 µM)
Compound: Cc1ccc(NC(=O)[C@H]2CCCN(C(=O)c3c(C)cccc3F)[C@H]2c2ccc(NC3CCCC3)cc2)cc1C(F)(F)F [Free Base Anhydrous Crystalline Form, (2R,3S)-2-(4-(cyclopentylamino)phenyl)-1-(2-fluoro-6-methylbenzoyl)-N-(4-methyl-3-(trifluoromethyl)phenyl)piperidine-3-carboxamide, reference compound]
